Laboratory results taken from patent publication US20040110802A1, “Antibacterial benzoic acid derivatives” (priority 2002, published 2004).
Values after ≈ are worked out from the molar mass of the structure shown.

Test system: SAUR 9218
Assay: MIC Test Method, standard agar dilution
Type: cell-based
Settings: agar dilution, Mueller Hinton agar, incubated overnight at 35° C., lowest concentration that inhibits visible growth; for MIC: read-out: SAUR 9218 MIC
In short: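 Agar dilution in Mueller Hinton agar with serial 2-fold compound dilutions. Staphylococcus aureus strain 9218 spotted at approximately 10^4 to 10^5 cells per spot, incubated overnight at 35 °C; MIC (μg/ml) is the lowest concentration preventing visible growth.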

SMILES | MIC [µg/mL] | SAUR 9218 MIC [µg/mL]
COc1cnc(C(=O)Nc2ccc(Br)cc2C(=O)O)cn1 | 4 (≈ 11.4 µM) | 
CCCC(C)Oc1ccccc1-c1cc(C(=O)Nc2ccc(C#N)cc2C(=O)O)no1 (stereo not shown) | 0.125 (≈ 0.298 µM) | 
Cc1oc(C(=O)Nc2ccc(C#N)cc2C(=O)O)cc1S(=O)(=O)N1CCCC1CO (stereo not shown) | 8 (≈ 18.5 µM) | 
COCC(O)COc1cccc2cc(C(=O)Nc3ccc(C#N)cc3C(=O)O)n(C)c12 (stereo not shown) | 0.5 (≈ 1.18 µM) | 
CCCCCCCCCSc1ccc(C(=O)Nc2ccc(C#N)cc2C(=O)O)cn1 | 1 (≈ 2.35 µM) | 
CC(=O)OCC(=O)Nc1cccc2cc(C(=O)Nc3ccc(C#N)cc3C(=O)O)[nH]c12 | 2 (≈ 4.76 µM) | 
N#Cc1ccc(NC(=O)c2cncc(C#Cc3ccccc3)c2)c(C(=O)O)c1 | 4 (≈ 10.9 µM) | 
O=C(O)c1cc(Br)ccc1NC(=O)c1cc2ccccc2n1CCCc1ccccc1 | 4 (≈ 8.38 µM) | 
N#Cc1ccc(NC(=O)c2cc3cccc(NC(=O)Cc4ccc(Cl)cc4Cl)c3[nH]2)c(C(=O)O)c1 | 0.25 (≈ 0.493 µM) | 
Cn1c(C(=O)Nc2ccc(C#N)cc2C(=O)O)cc2cccc(OCC3CCC3)c21 | 0.125 (≈ 0.31 µM) | 
CCN(CC)C(=O)C1CCCN(S(=O)(=O)c2cc(C(=O)Nc3ccc(C#N)cc3C(=O)O)sc2C)C1 (stereo not shown) | 64 (≈ 120 µM) | 
Cc1sc(C(=O)Nc2ccc(Br)cc2C(=O)O)cc1S(=O)(=O)Nc1ccc(Cl)cc1 | 4 (≈ 7.55 µM) | 
Cn1c(C(=O)Nc2ccc(C#N)cc2C(=O)O)cc2ccc(NC(=O)c3ccc(OC(F)(F)F)cc3)cc21 | 2 (≈ 3.83 µM) | 
O=C(Nc1ccc(Cl)cc1C(=O)O)c1cc(-c2ccccc2)on1 [drawing 1106] | 1 (≈ 2.92 µM) | 
N#Cc1ccc(NC(=O)c2noc3cc(O)ccc23)c(C(=O)O)c1 | 1 (≈ 3.09 µM) | 
N#Cc1ccc(NC(=O)c2cc3cccn3cn2)c(C(=O)O)c1 | 32 (≈ 104 µM) | 
N#Cc1ccc(NC(=O)c2cc3cccc(NC(=O)C4CCCC4)c3[nH]2)c(C(=O)O)c1 | 2 (≈ 4.8 µM) | 
N#Cc1ccc(NC(=O)c2cncc(-c3cccc4cccnc34)c2)c(C(=O)O)c1 | 32 (≈ 81.1 µM) | 
N#Cc1ccc(NC(=O)c2cc3cccnc3s2)c(C(=O)O)c1 | 4 (≈ 12.4 µM) | 
Cc1ccccc1-c1cccc2cc(C(=O)Nc3ccc(C#N)cc3C(=O)O)n(C)c12 | 0.125 (≈ 0.305 µM) | 
N#Cc1ccc(NC(=O)c2ccc3c(c2)OCO3)c(C(=O)O)c1 | 16 (≈ 51.6 µM) | 
Cc1sc(C(=O)Nc2ccc(Br)cc2C(=O)O)cc1S(=O)(=O)N1CCN(c2ccc(Cl)cc2)CC1 | > 128 | 

SMILES | MIC [µg/mL] | SAUR 9218 MIC [µg/mL]
N#Cc1ccc(NC(=O)c2cc3cccc(NC(=O)C4CCC4)c3[nH]2)c(C(=O)O)c1 | 0.5 (≈ 1.24 µM) | 
Cc1sc(C(=O)Nc2ccc(C#N)cc2C(=O)O)cc1S(=O)(=O)Nc1ccc2c(c1)CCC2 | 32 (≈ 66.5 µM) | 
Cn1c(C(=O)Nc2ccc(C#N)cc2C(=O)O)cc2c(-c3ccccc3C(F)(F)F)cc(-c3ccccc3C(F)(F)F)c(NC(=O)Cc3ccccc3)c21 | 8 (≈ 10.8 µM) | 
Cn1c(C(=O)Nc2ccc(C#N)cc2C(=O)O)cc2cccc(-c3ccccc3C(F)(F)F)c21 | 0.06 (≈ 0.129 µM) | 
N#Cc1ccc(NC(=O)c2cc3cccc(NC(=O)COc4ccc5ccccc5c4)c3[nH]2)c(C(=O)O)c1 | 0.25 (≈ 0.496 µM) | 
N#Cc1ccc(NC(=O)c2cc3cccc(OCc4ccccc4)c3[nH]2)c(C(=O)O)c1 | 0.125 (≈ 0.304 µM) | 
N#Cc1ccc(NC(=O)c2[nH]c3c(OCc4ccccc4)cccc3c2Br)c(C(=O)O)c1 | 0.5 (≈ 1.02 µM) | 
COc1ccc(-c2cc(C(=O)Nc3ccc(Cl)cc3C(=O)O)no2)cc1 | 0.25 (≈ 0.671 µM) | 
CC(C)Cn1c(C(=O)Nc2ccc(Cl)cc2C(=O)O)cc2ccccc21 | 2 (≈ 5.39 µM) | 
CCCSc1ccc(C(=O)Nc2ccc(C#N)cc2C(=O)O)cn1.Cl | 0.5 | 
O=C(Nc1ccc(Br)cc1C(=O)O)c1ccc(SC2CCCCC2)nc1 | 1 (≈ 2.3 µM) | 
N#Cc1ccc(NC(=O)c2cc3cc(-c4ccccc4)oc3cn2)c(C(=O)O)c1 | 8 (≈ 20.9 µM) | 
Cl.Cn1c(C(=O)Nc2ccc(C#N)cc2C(=O)O)cc2cccc(OCC(O)CN3CCOCC3)c21 (stereo not shown) | 1 | 
N#Cc1ccc(NC(=O)c2noc3cc(-c4ccccc4C(F)(F)F)ccc23)c(C(=O)O)c1 | 0.125 (≈ 0.277 µM) | 
CC(C)(C)c1ccc(CC(=O)Nc2cccc3cc(C(=O)Nc4ccc(C#N)cc4C(=O)O)[nH]c23)cc1 | 0.5 (≈ 1.01 µM) | 
N#Cc1ccc(NC(=O)c2cnc(SCc3ccccc3)cn2)c(C(=O)O)c1 | 0.125 (≈ 0.32 µM) | 
O=C(Nc1ccc(Br)cc1C(=O)O)c1cnc(SCc2ccccc2)cn1 | 0.125 (≈ 0.281 µM) | 
Cc1c(S(=O)(=O)Nc2ccc(F)c(Cl)c2)csc1C(=O)Nc1ccc(Br)cc1C(=O)O | 64 (≈ 117 µM) | 
Cc1ccccc1-c1ccc2c(C(=O)Nc3ccc(C#N)cc3C(=O)O)noc2c1 | 0.06 (≈ 0.151 µM) | 
N#Cc1ccc(NC(=O)c2cc3cc(OCc4ccccc4)ccc3[nH]2)c(C(=O)O)c1 | 16 (≈ 38.9 µM) | 
N#Cc1ccc(NC(=O)c2cncc(-c3ccc(Cl)cc3)c2)c(C(=O)O)c1 | > 128 | 
CCCCCCCCCSc1cnc(C(=O)Nc2ccc(C#N)cc2C(=O)O)cn1 | 2 (≈ 4.69 µM) | 

SMILES | MIC [µg/mL] | SAUR 9218 MIC [µg/mL]
Cc1cc(C(=O)Nc2ccc(C#N)cc2C(=O)O)no1 | 4 (≈ 14.7 µM) | 
N#Cc1ccc(NC(=O)c2cc3ccc(OCc4ccccc4)cc3[nH]2)c(C(=O)O)c1 | 0.125 (≈ 0.304 µM) | 
COCCOCCOCC(=O)Nc1cccc2cc(C(=O)Nc3ccc(C#N)cc3C(=O)O)[nH]c12 | 4 (≈ 8.33 µM) | 
O=C(O)c1cc(Br)ccc1NC(=O)c1noc2ccc(S(=O)(=O)N3CCCC3)cc12 | 0.25 (≈ 0.506 µM) | 
Cn1c(C(=O)Nc2ccc(Cl)cc2C(=O)O)cc2cccc(S(=O)(=O)c3ccccc3)c21 | 0.125 (≈ 0.267 µM) | 
N#Cc1ccc(NC(=O)COc2ccccc2-c2cc(C(=O)Nc3ccc(C#N)cc3C(=O)O)no2)c(C(=O)O)c1 | 128 (≈ 232 µM) | 
N#Cc1ccc(NC(=O)c2ncc(-c3ccc(F)cc3)o2)c(C(=O)O)c1 | 1 (≈ 2.85 µM) | 
O=C(Nc1ccc(Br)cc1C(=O)O)c1ccc2c(c1)S(=O)(=O)c1ccccc1C2=O | 16 (≈ 32.9 µM) | 
O=C(Nc1ccc(Br)cc1C(=O)O)c1ccc(-c2ccc(Cl)cc2)o1 | 32 (≈ 76.1 µM) | 
CCCCCCSc1cnc(C(=O)Nc2ccc(Br)cc2C(=O)O)cn1 | 0.5 (≈ 1.14 µM) | 
N#Cc1ccc(NC(=O)c2cc3cccc(NS(=O)(=O)Cc4ccccc4)c3[nH]2)c(C(=O)O)c1 | 0.125 (≈ 0.263 µM) | 
O=C(Nc1ccc(Br)cc1C(=O)O)c1ccc(Br)o1 | 64 (≈ 165 µM) | 
COc1ccc(-c2cnc(C(=O)Nc3ccc(C#N)cc3C(=O)O)cn2)cn1 | > 128 | 
Cn1nc(-c2c(F)cccc2F)cc1C(=O)Nc1ccc(Br)cc1C(=O)O | 128 (≈ 293 µM) | 
Cn1c(C(=O)Nc2ccc(C#N)cc2C(=O)O)cc2cccc(OC[C@H](O)CO)c21 | 0.5 (≈ 1.22 µM) | 
Cn1cnc(S(=O)(=O)Nc2cccc3cc(C(=O)Nc4ccc(C#N)cc4C(=O)O)n(C)c23)c1 | 0.5 (≈ 1.04 µM) | 
Cn1c(C(=O)Nc2ccc(C#N)cc2C(=O)O)cc2cccc(-c3ccccc3)c21 | 0.25 (≈ 0.632 µM) | 
Cn1c(C(=O)Nc2ccc(C#N)cc2C(=O)O)cc2c(Br)ccc(N)c21 | 1 (≈ 2.42 µM) | 
CC(C)n1c(C(=O)Nc2ccc(Br)cc2C(=O)O)cc2ccccc21 | 4 (≈ 9.97 µM) | 
Cc1noc(C)c1S(=O)(=O)Nc1ccc2cc(C(=O)Nc3ccc(C#N)cc3C(=O)O)n(C)c2c1 | 2 (≈ 4.05 µM) | 
CN(c1ccc(Cl)cc1)S(=O)(=O)c1cc(C(=O)Nc2ccc(Br)cc2C(=O)O)cs1 [drawing 825] |  | 2
Cc1sc(C(=O)Nc2ccc(C#N)cc2C(=O)O)cc1S(=O)(=O)N1CCN(c2ccccc2)CC1 | 8 (≈ 15.7 µM) | 

SMILES | MIC [µg/mL] | SAUR 9218 MIC [µg/mL]
C=CCN(C1CCCC1)S(=O)(=O)c1cc(C(=O)Nc2ccc(C#N)cc2C(=O)O)sc1C | 8 (≈ 16.9 µM) | 
O=C(O)c1cc(Br)ccc1NC(=O)c1noc2ccc(S(=O)(=O)Nc3ccccc3)cc12 | 0.03 (≈ 0.0581 µM) | 
CNS(=O)(=O)c1ccc2onc(C(=O)Nc3ccc(Br)cc3C(=O)O)c2c1 | 0.125 (≈ 0.275 µM) | 
N#Cc1ccc(NC(=O)c2ccccn2)c(C(=O)O)c1 | 32 (≈ 120 µM) | 
CC1=C(C(=O)Nc2ccc(Br)cc2C(=O)O)Cc2ccccc21 | 8 (≈ 21.5 µM) | 
CS(=O)(=O)Nc1ccc2c(C(=O)Nc3ccc(C#N)cc3C(=O)O)noc2c1 | 2 (≈ 5 µM) | 
CCCCN(CCCC)CCCNS(=O)(=O)c1cc(C(=O)Nc2ccc(Br)cc2C(=O)O)sc1C | > 128 | 
N#Cc1ccc(NC(=O)c2cc3cccc(NC(=O)Cc4cccs4)c3[nH]2)c(C(=O)O)c1 | 0.5 (≈ 1.12 µM) | 
Cc1sc(C(=O)Nc2ccc(C#N)cc2C(=O)O)cc1S(=O)(=O)N1CCOCC1 | 32 (≈ 73.5 µM) | 
CSc1ccc(C(=O)Nc2ccc(C#N)cc2C(=O)O)cn1.Cl | 4 | 
CN(C)S(=O)(=O)c1ccc2onc(C(=O)Nc3ccc(Br)cc3C(=O)O)c2c1 | 0.25 (≈ 0.534 µM) | 
N#Cc1ccc(NC(=O)c2noc3ccc(NS(=O)(=O)c4ccc(F)cc4)cc23)c(C(=O)O)c1 | 0.125 (≈ 0.26 µM) | 
COC(Cc1cnc(C(=O)Nc2ccc(Br)cc2C(=O)O)cn1)[C@H]1COC2(CCCCC2)O1 (stereo partly shown) | 128 (≈ 246 µM) | 
COCCOCCCSc1cnc(C(=O)Nc2ccc(Cl)cc2C(=O)O)cn1 | 2 (≈ 4.7 µM) | 
Cc1sc(C(=O)Nc2ccc(C#N)cc2C(=O)O)cc1S(=O)(=O)N(C)C(C)C(O)c1ccccc1 (stereo not shown) [drawing 960] |  | 128
Cc1ccccc1-c1cc(C(=O)Nc2ccc(C#N)cc2C(=O)O)no1 | 0.25 (≈ 0.72 µM) | 
N#Cc1ccc(NC(=O)c2cc(-c3ccccc3)nc3ccccc23)c(C(=O)O)c1 | 16 (≈ 40.7 µM) | 
N#Cc1ccc(NC(=O)c2cc(-c3ccccc3)no2)c(C(=O)O)c1 | 0.5 (≈ 1.5 µM) | 
Cn1cc(C(=O)Nc2ccc(C#N)cc2C(=O)O)c2ccccc21 | 16 (≈ 50.1 µM) | 
